Experimental data reported in US4515708A, “Corrosion inhibitors” (Exxon Research & Engineering Co., priority 1982, dated 1985).
Where a name gives a salt, the structure may show the parent alone. Read-outs that look alike come from different tables or passages of the source.

Legend:
[1] = Corrosion Test 1 (dynamic wheel test; 3 wt% brine/Mentor 28; CO2 + H2S); details: for % Protection: 24 h, 70° C.
Protocol: (§1) For each compound three mild steel coupons (approximately 100 mm×12 mm×1.5 mm) were tested at each concentration. Each was contacted in a 250 ml bottle with 200 ml of a test fluid either saturated with a carbon dioxide at 20° C. or containing 100 ppm hydrogen sulphide or having both CO2 and H2 S present in those amounts. The test fluid was treated with a 30% aqueous solution of the compound under test at 2, 10, 50 and 250 ppm except where indicated to the contrary. The coupon was subjected to a dynamic wheel test in which the bottle was mounted radially on the periphery of 650 mm diameter wheel which was rotated at about 40 rpm for 24 hours at 70° C. The weight loss was obtained, and also measured in a control experiment where no inhibitor was present. From this the % protection was calculated as % reduction in weight loss.
Test fluid: 100 ml 3 wt% brine/100 ml Mentor 28 (Mentor®28 is a depolarised kerosene available from Exxon Chemical Company)
(§2) Corrosives: Saturated CO2 +100 ppm H2 S

[2] = Corrosion Test 2 (dynamic wheel test; 3 wt% brine; CO2 + H2S); details: 24 h, 70° C.
Protocol: as §1
Test Fluid: 200 ml 3 wt% brine
as §2

[3] = Emulsion Test (3 wt% brine / heptane); format: physicochemical; design: Emulsion thickness after 30 mins: unit not given here; details: for Time to break emulsion: 1 ml of 35 wt% IPA solution, 50 ml 3 wt% brine, 50 ml heptane; for Appearance after 30 mins, hydrocarbon: hydrocarbon layer; for Appearance after 30 mins, hydrocarbon / Appearance after 30 mins, water / Emulsion thickness after 30 mins: 50 ml 3 wt% brine/50 ml heptane; for Appearance after 30 mins, water: water layer
Protocol: 1 ml of the solutions used for Test A was shaken with 50 ml of 3 wt% brine and 50 ml of heptane for 1 minute in a 150 ml bottle. The emulsion was observed, and the time noted for the emulsion to break and form a clean interface with clear liquid layers. If at 30 minutes this had not occurred, the appearance was recorded together with the thickness of any persisting emulsion.

[4] = Solubility Test (35 wt% solution in isopropylalcohol shaken with water, brine or heptane); format: physicochemical; details: for SOLUBILITY IN: Brine: 0.3 ml of 35 wt% IPA solution in 10 ml 5 wt% NaCl solution
Protocol: The active material under test was made up into a 35 wt% solution in isopropylalcohol (IPA). 0.3 ml of this solution was shaken with 10 ml of each of the liquids in which solubility is to be tested: water, 5 wt% NaCl solution (brine) and heptane. The mixture was observed after 30 minutes and 24 hours.

[5] = Corrosion Test 4 (dynamic wheel test; 3 wt% brine + Mentor 28; H2S); details: 24 h, 70° C.
Protocol: as §1
(§3) Test fluid: 100 ml 3 wt% brine+100 ml Mentor 28
Corrosives: 100 ppm H2 S (prior nitrogen purge)

[6] = Corrosion Test 3 (dynamic wheel test; 3 wt% brine + Mentor 28; CO2 only); details: 24 h, 70° C.
Protocol: as §1, §3
Corrosives: Saturated CO2 only

[7] = 2 ppm, * active material added as undiluted compound
[8] = 10 ppm, * active material added as undiluted compound
[9] = 50 ppm, * active material added as undiluted compound
[10] = 250 ppm, * active material added as undiluted compound
[11] = 0.3 ml of 35 wt% IPA solution in 10 ml heptane, 30 minutes and 24 hours
[12] = 0.3 ml of 35 wt% IPA solution in 10 ml water, observed after 30 minutes and 24 hours

Row | SOLUBILITY IN: Heptane [4, 11] | SOLUBILITY IN: Water [4, 12] | SMILES | % Protection ([1]; 2 ppm, 30% solution) | % Protection ([1]; 10 ppm, 30% solution) | % Protection ([1]; 50 ppm, 30% solution) | % Protection ([1]; 250 ppm, 30% solution) | % Protection ([2]; 2 ppm) | % Protection ([2]; 10 ppm) | % Protection ([2]; 50 ppm) | % Protection ([2]; 250 ppm) | Time to break emulsion [3] | Appearance after 30 mins, hydrocarbon [3] | Appearance after 30 mins, water [3] | further results
1 | – | – | NCCc1ccccn1 [2-aminoethyl pyridine, reference compound] | 0% | 45% | 55% | 86% | – | – | – | – | – | – | – | –
2 | – | – | CCc1ccccn1 [2-ethylpyridine, reference compound] | 3% | 7% | 16% | 23% | – | – | – | – | – | – | – | –
3 | – | – | CCc1ccccn1 [2-ethylpyridine.HCL, reference compound] | 10% | 10% | 24% | 18% | – | – | – | – | – | – | – | –
4 | – | – | CCc1ccncc1 [4-ethylpyridine.HCL, reference compound] | 2% | 5% | 13% | 16% | – | – | – | – | – | – | – | –
5 | – | – | CCCCCCCCCCCCNCCc1ccccn1 [21 acetate salt] | 21% | 74% | 94% | 96% | – | – | – | – | – | – | – | –
6 | – | – | CCCCCCCCNCCc1ccccn1 [Example 2] | – | – | – | – | 37% | 34% | 84% | 94% | 5 min | clear | clear | % Protection [1, 7]: 50%; % Protection [1, 8]: 82%; % Protection [1, 9]: 85%; % Protection [1, 10]: 89%; SOLUBILITY IN: Heptane [4]: S
7 | S | S | CCCCCCCCCCNCCc1ccccn1 [Example 3] | 13% | 63% | 82% | 99% | 7% | 37% | 91% | 97% | > 30 min | hazy | hazy | % Protection ([5]; 2 ppm): 0%; % Protection ([5]; 10 ppm): 42%; % Protection ([5]; 50 ppm): 65%; % Protection ([5]; 250 ppm): 76%
8 | S | S | CCCCCCCCCCCCCCNCCc1ccccn1 [Example 5] | 0% | 43% | 46% | 90% | 3% | 48% | 93% | 94% | > 30 min | hazy | hazy | Emulsion thickness after 30 mins [3]: 0.5
9 | S | S | CCCCCCCCCCCCCCCCNCCc1ccccn1 [Example 6] | 7% | 72% | 89% | 98% | 20% | 41% | 93% | 97% | > 30 min | hazy | hazy | % Protection ([5]; 2 ppm): 0%; % Protection ([5]; 10 ppm): 21%; % Protection ([5]; 50 ppm): 58%; % Protection ([5]; 250 ppm): 70%; Emulsion thickness after 30 mins [3]: 1.0
10 | – | – | CCCCCCCCCCCCNCCc1ccccn1 [Example 21, N-dodecyl-β-(2-pyridyl)-ethylamine] | 17% | 51% | 86% | 93% | – | – | – | – | – | – | – | corrosion protection compared with Example 4 ([1]; after addition of acetic acid): substantially identical protection to that seen in Example 4; corrosion protection compared with Example 4 ([1]; unsalified product): inferior corrosion protection to Example 4
11 | – | – | CCCCCCCCNCCc1ccncc1 [Example 23] | 38% | 49% | 83% | 92% | – | – | – | – | 10 min | clear | clear | SOLUBILITY IN: Heptane [4]: S; SOLUBILITY IN: Water [4]: S
12 | S | S | CCCCCCCCCCNCCc1ccncc1 [Example 24] | 58% | 80% | 88% | 95% | – | – | – | – | > 30 min | hazy | hazy | –
13 | S | S | CCCCCCCCCCCCCCNCCc1ccncc1 [Example 26] | – | – | – | – | – | – | – | – | > 30 min | clear | hazy | Emulsion thickness after 30 mins [3]: 1.0
14 | – | – | c1ccc(CNCCc2ccncc2)cc1 [Example 29] | 25% | 56% | 60% | 67% | – | – | – | – | 1 min | clear | clear | –
15 | – | – | NCCNCCc1ccncc1 [Example 32] | – | – | – | – | – | – | – | – | > 30 min | clear | hazy | –
16 | – | S | NCCCNCCc1ccncc1 [Example 33] | – | – | – | – | – | – | – | – | 1 min | clear | clear | SOLUBILITY IN: Brine ([4]; 30 minutes and 24 hours): S

Row | SMILES | SOLUBILITY IN: Heptane [4, 11] | SOLUBILITY IN: Water [4, 12] | % Protection ([1]; 2 ppm, 30% solution) | % Protection ([1]; 10 ppm, 30% solution) | % Protection ([1]; 50 ppm, 30% solution) | % Protection ([1]; 250 ppm, 30% solution) | % Protection ([2]; 2 ppm) | % Protection ([2]; 10 ppm) | % Protection ([2]; 50 ppm) | % Protection ([2]; 250 ppm) | Time to break emulsion [3] | Appearance after 30 mins, hydrocarbon [3] | Appearance after 30 mins, water [3] | further results
17 | NCCNCCc1ccccn1 [Example 13] | S | S | – | – | – | – | 40% | 42% | 74% | 89% | > 30 min | clear | hazy | % Protection ([5]; 10 ppm): 40%; % Protection ([5]; 250 ppm): 57%; % Protection [1, 7]: 43%; % Protection [1, 8]: 67%; % Protection [1, 9]: 82%; % Protection [1, 10]: 92%; % Protection ([6]; 2 ppm): 0%; % Protection ([6]; 10 ppm): 10%; % Protection ([6]; 50 ppm): 19%; % Protection ([6]; 250 ppm): 23%; SOLUBILITY IN: Brine ([4]; 30 minutes and 24 hours): S
18 | NCCCNCCc1ccccn1 [Example 14] | S | S | – | – | – | – | 26% | 64% | 74% | 90% | > 30 min | clear | hazy | % Protection [1, 7]: 47%; % Protection [1, 8]: 70%; % Protection [1, 9]: 70%; % Protection [1, 10]: 92%; SOLUBILITY IN: Brine ([4]; 30 minutes and 24 hours): S
19 | NCCNCCNCCNCCc1ccccn1 [Example 16] | S/D | S | 32% | 72% | 81% | 89% | 37% | 59% | 81% | 89% | 10 min | clear | clear | % Protection ([5]; 2 ppm): 10%; % Protection ([5]; 10 ppm): 48%; % Protection ([5]; 50 ppm): 56%; % Protection ([5]; 250 ppm): 61%; SOLUBILITY IN: Brine ([4]; 30 minutes and 24 hours): S
20 | CCCCCCCCCCCCCCCCNCCc1ccncc1 [Example 27] | S | S | 39% | 69% | 84% | 96% | 40% | 47% | 84% | 94% | > 30 min | clear | hazy | Emulsion thickness after 30 mins [3]: 3.0
